Data on six molecules can be found in patent US20160221992A1, “DENDRITIC COMPOUNDS INCLUDING A CHELATING, FLUOROCHROME OR RECOGNITION AGENT, COMPOSITIONS INCLUDING SAME AND USES THEREOF” (UNIVERSITE DE STRASBOURG, priority 2013, published 2016).

The test system of series [1] is murine melanoma (B16FO line). In words: Quantitative study of tumoral fixation and biodistribution of the radiolabeled compound (ex-vivo gamma counting after IV injection). In kind it is in vivo, C57B16 mice. The following applies: for Ratio (g)/Al TU/kidneys / Ratio (g)/Al Tu/Liver / Ratio (g)/Al Tu/Lungs / Ratio (g)/Al Tu/blood / Total Elimination (% del ‘Al’) / Tumor (g/Al %) / Total Elimination: Indium-111-radiolabeled, IV. Here is the method:
C57B16 mice bearing xenografts of murine melanoma (B16FO line) obtained by subcutaneous injection of 300 000 cells suspended in 100 μl of RPMI culture medium are injected subcutaneously in the back. The experiment is performed when the tumors are palpable. i.e. about 10 days […]. All the experiments (tumoral graft, injection and imaging) are carried out under isoflurane/oxygen (2.5%/2.5%) gas anesthesia.
Injection of 50 to 100 microliters of the radiolabeled solution, with a maximum activity of 20 MBQ, by direct intravenous injection (caudal vein). The activity of the empty syringe after injection+compress is also measured for calculating the actual activity injected (actual Ac injected=Ac normalized full syringe—normalized activity (empty syringe and compress). Normalization consists in calculating the theoretical activity at one and the same time chosen as reference (for example the time of injection). The measurements are performed on a regularly calibrated activity meter for medical use (Medisystem©).
Scintigraphic imaging is carried out using a dedicated small animal micro-5 imager SPECT-CT (BIOSCAN™). A planar scintigraphic image is obtained immediately after injection to verify absence of intracaudal stasis. If there is stasis, the mouse will be sacrificed at late times (24 or 48 h). Static scintigraphic images may be recorded at 2 h, 4 h, 24 h and 48 h (Imager micro-SPECT-CT BIOSCAN©).
This is done ex-vivo by gamma counting of the various samples, using a gamma well counter for medical use, regularly calibrated for the isotopes used (Tc-99m and In-111). The animals are euthanized according to the protocols allowed by the animal ethics committee at 2 h, 4 h, 24 h or 48 h. The main organs are removed (brain, spleen, kidneys, lungs, heart, alimentary canal, liver) as well as a fragment of skin, muscle, bone and a blood sample and the whole tumor. Each sample is weighed and its gamma activity is counted in a sample-changing well counter for dedicated medical use, calibrated for the radioelements used. The animal's carcass is also weighed after removing the tail; these samples are incinerated and their gamma activity is also measured. The gamma activity of the samples containing all the collected urine and the feces is also measured. The activity of each sample is normalized (relative to the time of injection), and the ratio of the activity of each sample is calculated relative to the total activity injected (=the sum of all of the activities measured except that of the tail), expressed in % per gram of tissue, for calculating the ratio of the activity present in the tumor relative to the main organs (liver, kidneys, lungs and blood). The percentage of the activity eliminated is calculated.
The mean values of all of the data for all of the mice whose data are exploitable are calculated, as well as after eliminating the animals with urinary excretion that is too quick (>50% at 2 h or 75% at 4 h, as well as the mice with tumors >2 g, as the existence of necrosis may distort the calculation of the ratio of fixation in the tumor).
The biodistribution data of the various dendrimer compounds coupled to the IFC01102 ligand (also called amine R) and to a chelating agent are compared with those of the ligand alone coupled to the DOTA chelating agent (compound AP045) and radiolabeled with the same radioelement. 8.5 Results with Compound APAG9-1 (Radiolabeled with Tc99m) The radiochemical purity is above 95%, according to the chromatographic profile obtained as described above (example 5). 12 animals were injected. The average activity injected is 3.5±2.4 MBq. 2 animals were euthanized at 2 h, 4 at 24 h and 48 h post-injection. Examples of planar image immediately post-injection and 2 hours post-injection are illustrated in FIG. 3.

Series [2] concerns murine melanoma (B16FO line). The series is described as above. In kind it is in vivo, C57B16 mice.
The nature of series [3]: Lymphatic drainage after intradermal injection in the hind paws (sentinel lymph node characterization, scintigraphy/SPECT). In kind it is in vivo, mouse. Here is the method:
Scintigraphic imaging is performed using a dedicated small animal micro-5 imager SPECT-CT (BIOSCAN™). A planar scintigraphic image is obtained immediately after injection to verify absence of intracaudal stasis. Static scintigraphic images may be recorded at 2 h, 4 h, 24 h and 48 h (Imager micro-SPECT-CT BIOSCAN©).
Intradermal injection of 1 to 20 microliters of a suspension of radiolabeled dendrimers with a hypodermic syringe in the pad of the hindpaw of a nude mouse. A whole-body planar scintigraphic image of the mouse is obtained 5 minutes after injection to verify absence of passage of the compound through the blood. Acquisition of tomographic images (SPECT) every 30 minutes to monitor the lymphatic drainage of the compound and determine the time of disappearance of the signal in the popliteal lymph node. 9.3.a Injection of Compound X1 Labeled with Tc99m (Generation 2 Molecule)

For series [4] the following is noted: cited from earlier work.
Where [5] appears, read: 48 post-IV, animals with low urinary excretion or under hydric restriction.
The mark [6] stands for this setting: 2 h post-iv, animals with low urinary excretion or under hydric restriction.
Where [7] appears, read: 4 h post-IV, animals with low urinary excretion or under hydric restriction.
[8] abbreviates: 24 h post-IV, animals with low urinary excretion or under hydric restriction.
Where [9] appears, read: 24 hours after intradermal injection at the two hind paws, Tc99m, 2.8 MBq.

For the molecule `CCN(CC)CCNC(=O)c1cnc2cc(NC(=O)NCCOCCOCCNC(=O)CN3CCN(CC(=O)O)CCN(CC(=O)O)CCN(CC(=O)O)CC3)ccc2n1` [AP045, reference compound], in series [1] (48 post-IV), the “Ratio (g)/Al TU/kidneys” value is given as 4.06E−01, the “Ratio (g)/Al Tu/Liver” value worked out at 7.14E−02, the “Ratio (g)/Al Tu/Lungs” value turned out to be 2.97E+00 and the “Ratio (g)/Al Tu/blood” value is 9.95E+00. In series [1] (48 post-IV), the “Total Elimination (% del ‘Al’)” value is on record as 7.23E+01 % del ‘Al’ and the “Tumor (g/Al %)” value is 1.19E+00 g/Al %. Further, in series [1] (4 h post-IV), the “Ratio (g)/Al TU/kidneys” value is recorded as 2.45E−01, the “Ratio (g)/Al Tu/Liver” value is listed as 4.97E−02, the “Ratio (g)/Al Tu/Lungs” value is 1.92E+00 and the “Ratio (g)/Al Tu/blood” value was 1.12E+01. Also, in series [1] (4 h post-IV), the “Tumor (g/Al %)” value amounted to 1.44E+00 g/Al %. Besides, the “tumor ratio relative to the liver” value in series [1] (24 hours after IV injection, Indium-111) is “greater than 1”. In addition, in series [1] (24 h post-IV), the “Ratio (g)/Al TU/kidneys” value is on record as 2.93E−01, the “Ratio (g)/Al Tu/Liver” value amounted to 1.31E+00, the “Ratio (g)/Al Tu/Lungs” value was 3.55E+00 and the “Total Elimination (% del ‘Al’)” value turned out to be 90.33 % del ‘Al’. Moreover, the “Tumor (g/Al %)” value in series [1] (24 h post-IV) was 1.77E+00 g/Al %. Also, the “time at which the maximum tumoral uptake is observed” value in series [1] (after IV injection of the radiolabeled compound) was 24 h. In series [2] (4 h post-IV, Indium-111-radiolabeled, IV), the “Total Elimination (% del ‘Al’)” value was determined as 6.38E+01 % del ‘Al’. In addition, in series [2] (Indium-111, activity in the kidneys still high), the “tumor/kidney ratio (in words)” value is “unfavorable”.

As to `CCN(CC)CCNC(=O)c1cnc2cc(NC(=O)NCCOCCOCCNC(=O)CCOCCOCCOCCOCCNC(=O)CCN(CCNC(=O)CCN(CCC(=O)NCCN(CCC(=O)NCCOCCOCCOCCOCCC(=O)NCCOCCOCCNC(=O)Nc3ccc4nc(C(=O)NCCN(CC)CC)cnc4c3)CCC(=O)NCCOCCOCCOCCOCCC(=O)NCCOCCOCCNC(=O)Nc3ccc4nc(C(=O)NCCN(CC)CC)cnc4c3)Cc3cn(CCOCCOCCOCCOCCNC(=O)CN4CCN(CC(=O)O)CCN(CC(=O)O)CCN(CC(=O)O)CC4)nn3)CCC(=O)NCCOCCOCCOCCOCCC(=O)NCCOCCOCCNC(=O)Nc3ccc4nc(C(=O)NCCN(CC)CC)cnc4c3)ccc2n1` [AP070], in series [1] (setting [5]), the “Ratio (g)/Al TU/kidneys” value is recorded as 5.23E−01, the “Ratio (g)/Al Tu/Liver” value turned out to be 1.59E+00, the “Ratio (g)/Al Tu/Lungs” value was determined as 6.28E+00 and the “Ratio (g)/Al Tu/blood” value worked out at 1.74E+01. In series [1] (setting [5]), the “Total Elimination” value stood at 8.4E+01 and the “Tumor (g/Al %)” value was found to be 3.60E+00 g/Al %. For the same molecule, in series [1] (setting [6]), the “Ratio (g)/Al TU/kidneys” value was found to be 3.6E−01, the “Ratio (g)/Al Tu/Liver” value was found to be 1.4E+00, the “Ratio (g)/Al Tu/Lungs” value was 2.1E+00 and the “Ratio (g)/Al Tu/blood” value is reported as 1.9E+00. For the same molecule, in series [1] (setting [6]), the “Total Elimination” value is recorded as 4.8E+01 and the “Tumor (g/Al %)” value was determined as 5.9E+00 g/Al %. Further, the “tumoral uptake (in words)” value in series [1] (4 hours after IV injection, Indium-111) is given as “high”. Further, in series [1] (setting [7]), the “Ratio (g)/Al TU/kidneys” value was 3.96E−01, the “Ratio (g)/Al Tu/Liver” value is 1.28E+00, the “Ratio (g)/Al Tu/Lungs” value is 2.93E+00 and the “Ratio (g)/Al Tu/blood” value was found to be 3.07E+00. Besides, in series [1] (setting [7]), the “Total Elimination” value turned out to be 2.6E+01 and the “Tumor (g/Al %)” value was determined as 1.27E+01 g/Al %. In series [1] (setting [8]), the “Ratio (g)/Al TU/kidneys” value is listed as 2.58E−01, the “Ratio (g)/Al Tu/Liver” value is recorded as 4.06E−01, the “Ratio (g)/Al Tu/Lungs” value is 3.52E+00 and the “Ratio (g)/Al Tu/blood” value was 2.00E+01. In addition, in series [1] (setting [8]), the “Total Elimination” value is recorded as 6.8E+01 and the “Tumor (g/Al %)” value was found to be 3.69E+00 g/Al %. The “tumoral uptake compared with the ligand alone (AP045)” value in series [1] (APAG22-1: at two hours post-IV) is recorded as “far higher”. Besides, the “tumor/liver ratio relative to the compound AP071” value in series [1] (Indium-111) is reported as “less favorable”. In addition, the “tumoral uptake relative to the compound AP071” value in series [2] (notably at 4 hours, Indium-111) was “lower”.

As for `COCCOCCOCCOCCOc1cc(C(=O)NCCCCNC(=O)CN2CCN(CC(=O)O)CCN(CC(=O)O)CCN(CC(=O)O)CC2)cc(OCCOCCOCCOCCOC)c1OCCOCCOCCOCCOC` [APAG4], the “drainage in the entire lymphatic network as far as the lumbar-aortic stage” value in series [3] (SPECT 3 h after intradermal injection, indium-111, 10 MBq) was “clearly visible”.

As for `O=C([O-])CN(CCN(CC(=O)[O-])CC(=O)O)CCN(CC(=O)[O-])CC(=O)O.[Gd+3]` [Gd(III)-DTPA], the “relaxation rate r1” value in series [4] (0.6 T, 20° C.) was 5400 M⁻¹ s⁻¹.

With `COCCOCCOCCOCCOc1cc(COc2cc(OCc3cc(OCCOCCOCCOCCOC)c(OCCOCCOCCOCCOC)c(OCCOCCOCCOCCOC)c3)cc(C(=O)NCCCNC(=O)C(CCCNC(=O)c3cccc(O)c3O)(CCCNC(=O)c3cccc(O)c3O)CCCNC(=O)c3cccc(O)c3O)c2)cc(OCCOCCOCCOCCOC)c1OCCOCCOCCOCCOC` [X1], in series [3] (setting [9]), the hepatic activity result was “very low” and the “level of urinary elimination” value is “very high”.

On to Gadomer-17, for which the r1 in series [4] (1.5 T and 37° C.) is 15.2 mM⁻¹ s⁻¹.
